Data as given in ChEMBL document CHEMBL1201862, “PubChem BioAssay data set” (2004).
Blank lines part the entries; values can stand above or below the molecule they belong to. Calls of active or inactive are those of the source.

Key:
[1] = Concentration-dependent survival of SW480 colon cancer line, luminescence detection with CellTiter-Glo, half-maximal inhibitory concentration (AID 1117338); format: functional
[2] = RKO cell viability reduction, dose response, CellTiter-Glo luminescence (AID 1117322); format: functional
[3] = cytotoxicity toward HCT116 cells – cell-based, CellTiter-Glo luminescence, IC50, dose response (AID 1117332); format: functional; details: HCT-116
[4] = HCT116 cell viability decrease, GSK3B pretreatment – CellTiter-Glo, IC50, dose response (AID 1117339); format: functional; details: HCT-116
[5] = CellTiter-Glo luminescent dose response of DLD-1 viability loss (AID 1117352); format: functional
[6] = cytotoxicity toward HT-29 cells – cell-based, CellTiter-Glo luminescence, IC50, dose response (AID 1117330); format: functional
[7] = cytotoxicity toward Colo320 cells – cell-based, CellTiter-Glo luminescence, IC50, dose response (AID 1117334); format: functional; details: COLO 320
Prothrombin = Prothrombin (Homo sapiens, UniProt P00734); assay: Thrombin 1536 HTS Dose Response Confirmation. [Related pubchem assays: 1046 (Thrombin 1536 HTS; hits were confirmed in this assay)]; format: functional
[8] = Jurkat T cell cytotoxicity, dose response, cytotoxicity control for P. falciparum gametocyte viability project, luminescence (AID 1117277); format: functional, cell-based;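 note: potency reflects loss of cellular ATP meaning fewer viable cells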
[9] = P. falciparum late gametocyte killing, dose response, luminescence (AID 1117278); format: functional, cell-based;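 note: gametocytes exposed to compound for 24 hours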
[10] = NIH-3T3 fibroblast cytotoxicity, dose response, cytotoxicity control, cell-based, fluorescence, Alamar Blue, secondary assay (AID 2327); format: functional;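 note: NIH-3T3 mouse fibroblasts cultured with fluconazole at 8 µg/mL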
[11] = C. albicans growth with fluconazole, confirmation, fluorescence, retest (AID 2467); format: functional, cell-based
[12] = HepG2 cell cytotoxicity, dose response, cytotoxicity control, ATP luminescence, cherry-pick, activator set 2 (AID 1053143); format: functional, cell-based
INS1 = assay: beta cell apoptosis inhibitors, cytokine rescue, dose response, luminescence, retest (AID 449756); format: functional, cell-based; details: Rattus norvegicus;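 note: cell death triggered by IL-1 beta plus TNF-alpha plus IFN-gamma mixture; protective hits raise ATP signal compared with cytokine alone wells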
Aminopeptidase N = molecular target: T1, Aminopeptidase N (Plasmodium falciparum FcB1/Columbia, UniProt O96935); assay: P. falciparum M1AAP inhibitors, biochemical, fluorogenic H-Leu-NHMec substrate, 1536-well (AID 1445); set-up: species or system Plasmodium falciparum 3D7, 3D7
T1 sequence (O96935 whole entry): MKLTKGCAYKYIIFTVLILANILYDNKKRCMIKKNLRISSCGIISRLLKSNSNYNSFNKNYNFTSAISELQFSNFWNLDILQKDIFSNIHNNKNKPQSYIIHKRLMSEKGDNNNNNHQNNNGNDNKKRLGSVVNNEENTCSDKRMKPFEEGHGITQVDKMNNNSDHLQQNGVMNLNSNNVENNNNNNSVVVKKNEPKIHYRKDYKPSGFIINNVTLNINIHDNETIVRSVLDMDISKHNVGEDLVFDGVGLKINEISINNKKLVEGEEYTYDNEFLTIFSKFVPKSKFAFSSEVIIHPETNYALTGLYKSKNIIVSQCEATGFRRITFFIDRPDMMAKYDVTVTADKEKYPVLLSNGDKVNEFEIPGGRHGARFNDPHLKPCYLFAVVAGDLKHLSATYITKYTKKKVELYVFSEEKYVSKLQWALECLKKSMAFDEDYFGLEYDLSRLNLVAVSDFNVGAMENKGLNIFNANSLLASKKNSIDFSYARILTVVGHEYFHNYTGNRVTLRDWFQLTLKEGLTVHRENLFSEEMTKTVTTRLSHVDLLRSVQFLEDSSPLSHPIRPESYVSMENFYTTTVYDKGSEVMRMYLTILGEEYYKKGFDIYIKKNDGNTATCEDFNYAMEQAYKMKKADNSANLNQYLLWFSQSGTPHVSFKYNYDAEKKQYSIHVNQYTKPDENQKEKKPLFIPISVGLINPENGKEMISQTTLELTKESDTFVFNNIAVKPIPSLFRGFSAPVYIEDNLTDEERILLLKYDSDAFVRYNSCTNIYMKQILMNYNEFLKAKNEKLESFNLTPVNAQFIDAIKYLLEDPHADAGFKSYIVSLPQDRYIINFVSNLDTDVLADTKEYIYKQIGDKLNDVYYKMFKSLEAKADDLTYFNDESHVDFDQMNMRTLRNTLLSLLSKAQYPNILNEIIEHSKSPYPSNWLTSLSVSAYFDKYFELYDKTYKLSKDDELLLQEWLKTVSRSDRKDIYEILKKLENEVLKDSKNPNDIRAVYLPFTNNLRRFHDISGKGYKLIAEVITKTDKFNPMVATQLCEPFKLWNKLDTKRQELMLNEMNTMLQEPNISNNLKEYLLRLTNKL

[13] = non-specific cell cytotoxicity, dose response, cytotoxicity control for PAX8 inhibitor project, plate reader, dry powder samples (AID 743021); format: functional, cell-based
[14] = HepG2 cell cytotoxicity, dose response, cytotoxicity control for Shn3 inhibitor project, CellTiter-Glo, cherry-picked (AID 624134); format: functional, cell-based
[15] = HEK293 cell cytotoxicity, dose response, cytotoxicity control, plate reader, cherry-picked samples (AID 743446); format: functional, cell-based
[16] = LGR2 antagonists, dose response, cell-based, HEK293, CRE-luciferase reporter, cherry pick, set 2 (AID 743343); format: functional;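 note: transfected cells were stimulated with diluted bursicon conditioned medium after compound addition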
[17] = HepG2 cell cytotoxicity, dose response, cytotoxicity control, plate reader, cherry-pick, antagonist series (AID 743416); format: functional, cell-based
[18] = A549 cell cytotoxicity, dose response, cytotoxicity control, plate reader, cherry-pick, antagonist series (AID 743412); format: functional, cell-based
[19] = molecular target: T2, Heat shock factor protein 1 (Mus musculus, UniProt P38532); assay: inhibition of MG132-induced HSE-luciferase signal, confirmation, cell-based, NIH3T3, luminescence, dose retest (AID 2382); format: functional;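 note: NIH3T3 fibroblasts with HSF1-driven luciferase reporter stressed by proteasome inhibitor MG132; luminescence from HSF1-driven luciferase expression after 8 hours of MG132 stress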
T2 sequence (P38532 whole entry): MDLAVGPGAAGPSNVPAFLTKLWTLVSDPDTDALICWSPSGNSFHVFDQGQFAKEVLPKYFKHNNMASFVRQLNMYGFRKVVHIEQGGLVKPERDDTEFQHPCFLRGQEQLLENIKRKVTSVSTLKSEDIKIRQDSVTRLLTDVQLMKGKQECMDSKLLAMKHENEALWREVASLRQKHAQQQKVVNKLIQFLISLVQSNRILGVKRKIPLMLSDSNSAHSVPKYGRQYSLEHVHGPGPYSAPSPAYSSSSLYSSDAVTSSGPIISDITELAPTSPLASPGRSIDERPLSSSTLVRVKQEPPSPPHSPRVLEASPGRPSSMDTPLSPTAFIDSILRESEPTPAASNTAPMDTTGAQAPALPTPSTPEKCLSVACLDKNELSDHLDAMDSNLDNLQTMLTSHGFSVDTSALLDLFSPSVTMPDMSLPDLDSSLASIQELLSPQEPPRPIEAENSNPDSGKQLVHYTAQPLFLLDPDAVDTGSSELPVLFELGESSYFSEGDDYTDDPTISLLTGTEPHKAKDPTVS

[20] = molecular target: T3, Microphthalmia-associated transcription factor (Homo sapiens, UniProt O75030); assay: TRPM1 promoter luciferase signal decrease, dose response, MITF inhibitor project, cell-based, SK-MEL-5, cherry-picked, set 3 (AID 493073); format: functional
T3 sequence (O75030 whole entry): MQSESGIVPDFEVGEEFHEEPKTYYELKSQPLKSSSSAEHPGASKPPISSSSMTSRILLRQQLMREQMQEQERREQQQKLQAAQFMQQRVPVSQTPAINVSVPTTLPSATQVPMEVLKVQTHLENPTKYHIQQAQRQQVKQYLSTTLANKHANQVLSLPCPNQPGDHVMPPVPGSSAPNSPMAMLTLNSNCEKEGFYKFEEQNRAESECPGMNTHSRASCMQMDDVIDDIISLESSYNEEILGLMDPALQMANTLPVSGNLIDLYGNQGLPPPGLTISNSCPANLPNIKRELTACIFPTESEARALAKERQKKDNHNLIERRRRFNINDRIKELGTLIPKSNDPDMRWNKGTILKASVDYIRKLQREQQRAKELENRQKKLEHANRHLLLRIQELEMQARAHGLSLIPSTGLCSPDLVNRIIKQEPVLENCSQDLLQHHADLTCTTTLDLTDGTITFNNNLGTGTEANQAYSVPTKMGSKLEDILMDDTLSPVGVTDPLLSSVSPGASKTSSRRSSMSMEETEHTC

Paired box protein Pax-8 = Paired box protein Pax-8 (Homo sapiens, UniProt Q06710); assay: inhibitors of PAX8-driven TPO luciferase reporter, dose response, RMG-I cells, cherry-pick (AID 687027); format: functional, cell-based;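 note: luciferase reporter driven by Pax8 target thyroperoxidase promoter measured by SteadyGlo luminescence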
Sequence of Paired box protein Pax-8 (Q06710 whole entry): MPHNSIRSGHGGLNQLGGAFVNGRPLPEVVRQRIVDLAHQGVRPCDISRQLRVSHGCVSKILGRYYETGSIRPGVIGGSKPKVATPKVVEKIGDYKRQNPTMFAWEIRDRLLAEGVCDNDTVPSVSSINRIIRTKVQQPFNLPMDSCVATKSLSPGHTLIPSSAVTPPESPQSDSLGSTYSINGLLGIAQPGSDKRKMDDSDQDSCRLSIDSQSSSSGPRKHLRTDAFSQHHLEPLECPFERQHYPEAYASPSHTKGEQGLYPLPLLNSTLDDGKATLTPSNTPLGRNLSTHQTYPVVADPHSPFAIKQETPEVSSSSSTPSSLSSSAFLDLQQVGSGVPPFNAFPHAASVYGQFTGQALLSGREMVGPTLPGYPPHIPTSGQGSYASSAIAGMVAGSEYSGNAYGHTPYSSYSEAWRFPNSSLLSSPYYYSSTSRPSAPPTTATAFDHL

[21] = control 3'UTR Renilla luciferase suppression, dose response, counter-screen for Shn3 inhibitor project, cell-based, Clone20-Shn3RL, cherry-picked (AID 624133); format: functional
[22] = MC4R antagonists, dose response, counter-screen for LGR2 antagonist project, cell-based, plate reader, cherry pick (AID 743444); format: functional;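 note: transfected HEK 293 cells stimulated with alpha-MSH peptide; potency of inhibitors of the alpha-MSH evoked signal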
[23] = Shn3 3'UTR reporter inhibitors, dose response, cell-based, Clone20 osteoblasts, firefly luciferase, cherry-picked (AID 624132); format: functional;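 note: firefly luciferase luminescence from reporter carrying the Shn3 3'UTR in osteoblasts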
[24] = Luminescence Cell-Based Dose Retest to Confirm Inhibitors of Cancer Stem Cells. [Related pubchem assays (depositor defined):AID2717, AID2721]; format: functional, Homo sapiens; details: Homo sapiens
[25] = Artemis endonuclease inhibitor potency, dose response, biochemical, fluorescence intensity (AID 720701); format: functional;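 note: Artemis endonuclease enzyme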
[26] = Luminescence-based cell-based high throughput dose response assay to identify activators of the DAF-12 from the parasite S. stercoralis (ssDAF-12).; format: functional
[27] = molecular target: Endoplasmic reticulum aminopeptidase 1 (Homo sapiens, UniProt Q9NZ08); assay: ERAP1 aminopeptidase inhibitors, dose response, biochemical, cherry-pick, set 2, plate reader (AID 743314)
Sequence of Endoplasmic reticulum aminopeptidase 1 (Q9NZ08 whole entry): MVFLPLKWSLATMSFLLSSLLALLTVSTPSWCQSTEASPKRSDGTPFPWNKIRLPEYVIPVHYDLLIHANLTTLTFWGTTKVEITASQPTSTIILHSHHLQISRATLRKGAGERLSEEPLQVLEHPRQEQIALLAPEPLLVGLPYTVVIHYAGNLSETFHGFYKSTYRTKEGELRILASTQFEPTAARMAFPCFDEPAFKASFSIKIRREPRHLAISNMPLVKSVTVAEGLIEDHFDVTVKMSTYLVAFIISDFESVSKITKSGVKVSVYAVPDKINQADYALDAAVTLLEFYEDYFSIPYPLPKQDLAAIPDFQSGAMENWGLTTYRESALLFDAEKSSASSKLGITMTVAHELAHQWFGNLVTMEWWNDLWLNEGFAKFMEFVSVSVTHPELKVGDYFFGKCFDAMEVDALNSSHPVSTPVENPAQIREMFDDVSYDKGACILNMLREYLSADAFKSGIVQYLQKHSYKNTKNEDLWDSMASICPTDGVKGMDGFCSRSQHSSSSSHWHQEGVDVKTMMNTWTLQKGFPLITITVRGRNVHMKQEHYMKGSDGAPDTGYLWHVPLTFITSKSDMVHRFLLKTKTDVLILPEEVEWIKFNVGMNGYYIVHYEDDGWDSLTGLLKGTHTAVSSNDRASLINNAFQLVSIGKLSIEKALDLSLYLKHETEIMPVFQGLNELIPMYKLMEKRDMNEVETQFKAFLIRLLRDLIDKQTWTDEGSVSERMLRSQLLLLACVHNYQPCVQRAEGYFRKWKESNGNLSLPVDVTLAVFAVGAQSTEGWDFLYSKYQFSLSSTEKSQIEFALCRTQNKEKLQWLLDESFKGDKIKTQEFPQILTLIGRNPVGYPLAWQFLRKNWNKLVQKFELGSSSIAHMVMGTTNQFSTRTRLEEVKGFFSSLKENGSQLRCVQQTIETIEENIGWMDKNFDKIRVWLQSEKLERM

Kallikrein-7 = Kallikrein-7 (Homo sapiens, UniProt P49862); assay: Fluorescence Intensity-based biochemical primary high throughput dose response assay to identify activators of kallikrein-7 (K7) zymogen.
Sequence of Kallikrein-7 (P49862 whole entry): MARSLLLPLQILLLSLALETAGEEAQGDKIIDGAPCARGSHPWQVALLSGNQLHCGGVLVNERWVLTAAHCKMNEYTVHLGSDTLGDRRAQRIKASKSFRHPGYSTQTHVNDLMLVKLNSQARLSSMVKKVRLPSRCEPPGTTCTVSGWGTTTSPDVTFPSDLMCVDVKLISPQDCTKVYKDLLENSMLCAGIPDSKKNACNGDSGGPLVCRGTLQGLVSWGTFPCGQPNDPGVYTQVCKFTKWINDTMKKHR

IC50 [25]: > 20 µM (inactive)
SMILES: CCN1CCc2nc(NC(=O)C(c3ccccc3)c3ccccc3)sc2C1

IC50 [25]: 1.96 µM (active)
SMILES: COc1cccc(OC)c1-c1nn2c(-c3cc(-c4ccccc4)[nH]n3)nnc2s1

IC50 (Prothrombin): 1.23 µM (active)
SMILES: CCC(=O)NC(=Nc1ccc(OC)cc1)Nc1nc(C)cc(C)n1

AC50 [27]: 3.51 µM (active) | EC50 (Kallikrein-7): > 0.858 µM (active)
SMILES: COC(=O)Cc1c(C)c2ccc(O)c(CNCc3ccc(OC)c(OC)c3)c2oc1=O

Further lines, the molecule ahead of its results:

SMILES: Cc1cc(-c2ccc(N=Nc3c(S(=O)(=O)O)cc4cc(S(=O)(=O)O)cc(N)c4c3O)c(C)c2)ccc1N=Nc1c(S(=O)(=O)O)cc2cc(S(=O)(=O)O)cc(N)c2c1O
IC50 [1]: > 20 µM (inactive) | IC50 [2]: > 20 µM (inactive) | IC50 [3]: > 20 µM (inactive) | IC50 [4]: > 20 µM (inactive) | IC50 [5]: > 20 µM (inactive) | IC50 [6]: > 20 µM (inactive) | IC50 [7]: > 20 µM (inactive)

SMILES: COc1ccccc1C(=O)n1nc(-c2ccccc2)nc1NCc1ccco1
IC50 (Prothrombin): 0.223 µM (active)

SMILES: Cc1ccc(S(=O)(=O)N2CCN(Cc3ccccc3)CC2)c(C)c1N(C)S(=O)(=O)c1ccccc1
IC50 [8]: > 83.3 µM (inactive) | IC50 [9]: > 109 µM (inactive)

SMILES: O=C(Oc1c(CN2CCOCC2)cc(Cl)c2cccnc12)c1cccs1
EC50 [10]: > 160 µM (inactive) | EC50 [11]: 2.63 µM (active) | AC50 [12]: 26 µM (active) | AC50 (INS1): 4.67 µM (active) | IC50 (Aminopeptidase N): 72.3 µM (active)

SMILES: O=C(Nc1ccc2nc3n(c(=O)c2c1)CCCCC3)c1cc([N+](=O)[O-])ccc1F
AC50 [13]: 42.6 µM (active) | AC50 [14]: 42.2 µM (active) | AC50 [15]: 14.7 µM (active) | AC50 [16]: 6.52 µM (active) | AC50 [17]: 18.3 µM (active) | AC50 [18]: 17.5 µM (active) | EC50 [19]: > 195 µM (not active) | AC50 [20]: 10.7 µM (active) | AC50 (Paired box protein Pax-8): 14.3 µM (active) | AC50 [21]: 9.99 µM (active) | AC50 [22]: 11.5 µM (active) | AC50 [23]: 14.1 µM (active) | AC50 [24]: 5.51 µM (active)

SMILES: CC(C)(C)C1CCC(=NN=C(S)Nc2cccnc2)CC1 (centres undefined)
IC50 [26]: > 67.5 µM (inactive)
